In patent publication US8093060B2, “Multisite phosphorylated peptide (protein) recognizing compound and detection method, imaging method, alzheimer's disease diagnosing method and reagent kit using the same” (Canon Kabushiki Kaisha, priority 2008, dated 2012):
“Also recorded” adds a separate entry of the source.

Experiments:
[1] = biological target: T1, Tau2P (Homo sapiens, UniProt P10636); experiment: Fluorescence titration of BODIPY-Zn(Dpa) with Tau2P; format: binding; conditions: Tau 2P (i, i+4)
T1 construct: made in house; host or cells: chemical solid-phase synthesis
Method: (§1) The phosphorylated peptide-recognizing ability of BODIPY-Zn(Dpa) compound 9 (hereinafter referred to as BODIPY-Zn(Dpa)) was evaluated by measuring fluorescence spectra. Measurement was performed under the following conditions: [BODIPY-Zn(Dpa)]=5 μM; pH 7.2; 50 mM HEPES buffer; and 25° C. The excitation wavelength was λex=530 nm. […] When Tau2P was excessively added, this change reached saturation. The […] calculated from the fluorescence changes was 2.75×10^5 M^−1.

[2] = biological target: T2, Tau1P (Homo sapiens, UniProt P10636); experiment: Fluorescence titration of BODIPY-Zn(Dpa) with Tau1P; format: binding
T2 construct: made in house; host or cells: chemical solid-phase synthesis
Method: as §1

[3] = biological target: T3, Tau0P (Homo sapiens, UniProt P10636); experiment: Fluorescence titration of BODIPY-Zn(Dpa) with Tau0P; format: binding
T3 construct: made in house; host or cells: chemical solid-phase synthesis
Method: as §1

[4] = biological target: T4, Tau204-2162P (Homo sapiens, UniProt P10636); experiment: Fluorescence titration of BODIPY-Zn(Dpa) with Tau204-2162P (i, i+6); format: binding
T4 construct: made in house; host or cells: chemical solid-phase synthesis
Method: as §1
Fluorescence changes when peptide Tau204-2163P or Tau204-2162P used in Example 1 was added dropwise were measured to calculate the affinity (association constant).

[5] = test system: GSK-3β; experiment: Kinase assay using BODIPY-Zn(Dpa), Tau1P and GSK-3β; format: biochemical
Method: A kinase assay was performed using Tau1P, a phosphorylated partial sequence peptide of a tau protein, BODIPY-Zn(Dpa) and GSK-3β, which phosphorylates the 231st threonine. The experiment conditions were as follows: 20 μM Tau1P, 20 μM BODIPY-Zn(Dpa), 100 μM ATP, 2 μg of BSA, 50 mM HEPES, 10 mM MgCl2, 10 mM DTT, 2 μM EDTA; pH 7.2; 30° C.; and an excitation wavelength of 540 nm. […] This is a result of phosphorylation of the 231st threonine in Tau1P by GSK-3β, recognition of the phosphorylation by BODIPY-Zn(Dpa) and the resulting interaction.

[6] = test system: hippocampal tissues from the normal human brain; experiment: Fluorescence staining of normal human brain hippocampal tissue sections
Method: To investigate whether an excessively phosphorylated tau protein in brain tissues can be detected, a fluorescence staining experiment of hippocampal tissue sections from a human brain affected by Alzheimer (AD) and a normal brain was performed using BODIPY-Zn(Dpa). Specifically, hippocampal tissue sections from the AD-affected human brain or the normal brain were deparaffinized (xylene immersion for 5 min was repeated three times, then each section was immersed in 100%, 90%, 80% and 70% aqueous ethanol solution in stages [for 2 min each], and finally washed twice with water for 5 min), lipofuscin was removed (washed twice with PBS for 2 min, immersed in 0.25% by weight permanganate potassium/PBS for 30 min, washed twice with PBS for 2 min, immersed in 1% by weight oxalic acid and 1% by weight potassium pyrosulfate/PBS for 6 min and finally washed twice with PBS for 2 min), trypsin treatment was performed (washed twice with PBS-Tween at room temperature for 2 min and 0.05% Trypsin/PBS at 37° C. for 15 min), and finally washed twice with PBS-Tween at room temperature for 5 min, and costaining was performed using an antibody and BODIPY-Zn(Dpa). First, blocking was performed with 10% goat serum (37° C., 30 min) to remove 10% goat serum, then a primary antibody was added, and a reaction was performed at 4° C. for 17 to 19 h. […]

[7] = test system: tau proteins on a tissue section; experiment: Fluorescence staining of AD human hippocampal tissue sections treated with dephosphorylating enzyme (PP2A); conditions: PP2A 0.5 units/50 μL, 37° C., 24 h
Method: To investigate whether an excessively phosphorylated tau protein in brain tissues can be detected, a fluorescence staining experiment of hippocampal tissue sections from a human brain affected by Alzheimer (AD) and a normal brain was performed using BODIPY-Zn(Dpa). […]
Before staining, the sections were treated with a dephosphorylating enzyme (PP2A: 0.5 units/50 μL, 37° C., 24 h), and a fluorescence staining experiment for hippocampal tissue sections was performed according to the procedure in Example 2(12). […] Fluorescence dots observed in the BODIPY-Zn(Dpa) staining and the AT8 staining disappeared after dephosphorylating tau proteins on tissues with PP2A. […] The fluorescence dots in the BODIPY-Zn(Dpa) staining were detected depending on the phosphorylation of tau proteins.

[8] = biological target: T5, phosphorylated tau aggregate (Homo sapiens, UniProt P10636); experiment: Fluorescence titration of BODIPY-Zn(Dpa) against phosphorylated tau aggregate (EC50); format: binding
T5 construct: made in house; host or cells: Escherichia coli
Method: BODIPY-Zn(Dpa) was titrated against a phosphorylated tau aggregate, a tau aggregate, and an amyloid β aggregate to obtain EC50 (a probe concentration at which a half value of the maximum change (ΔFmax) in fluorescence intensity is observed). BODIPY-Zn(Dpa) was titrated against an aggregate at a predetermined concentration (1 μg/mL), and changes in fluorescence intensity at each concentration (ΔF) were plotted. Using a solvent obtained by adding 10% DMSO and 100 μM Zn(NO3)2 to HBS (10 mM HEPES (pH 7.4), 150 mM NaCl), the solution was incubated at 37° C. for 30 min, and fluorescence was measured (excitation wavelength, 490 nm; fluorescence wavelength, 545 nm).

T5 sequence (P10636 1-441 isoform P10636-8): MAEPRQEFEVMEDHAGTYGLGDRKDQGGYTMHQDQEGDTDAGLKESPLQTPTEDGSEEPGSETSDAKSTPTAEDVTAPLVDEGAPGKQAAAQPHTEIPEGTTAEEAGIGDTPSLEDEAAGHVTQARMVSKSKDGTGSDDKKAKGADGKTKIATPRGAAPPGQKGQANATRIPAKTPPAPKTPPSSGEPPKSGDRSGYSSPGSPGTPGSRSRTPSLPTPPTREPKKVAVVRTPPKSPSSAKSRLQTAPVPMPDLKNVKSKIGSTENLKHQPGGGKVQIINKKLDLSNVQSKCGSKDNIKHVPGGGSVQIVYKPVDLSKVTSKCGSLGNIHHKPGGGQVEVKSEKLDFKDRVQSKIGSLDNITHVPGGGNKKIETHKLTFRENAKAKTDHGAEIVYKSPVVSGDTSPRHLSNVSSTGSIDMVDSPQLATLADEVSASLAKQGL

CC1=C(c2ccc(CN(C)Cc3ccccn3)nc2)C(C)=[N+]2C1=C(c1cc(OCCOCCOCCO)cc(OCCOCCOCCO)c1)c1c(C)c(-c3ccc(CN(C)Cc4ccccn4)nc3)c(C)n1[B-]2(F)F.O=[N+]([O-])[O-].O=[N+]([O-])[O-].O=[N+]([O-])[O-].O=[N+]([O-])[O-].[Zn+2].[Zn+2] [BODIPY-Zn(Dpa)]
I/I0 - 1 at saturation ([1]; BODIPY-Zn(Dpa) 5 μM, pH 7.2, 25° C.): 0.55
Association constant ([1]; calculated from fluorescence changes): 275000 M⁻¹
I/I0 - 1 at saturation ([2]; Tau 1P): No change
fluorescence intensity change on addition of peptide ([2]; Tau1P, monophosphorylated): no major change was observed; also recorded: does not change
I/I0 - 1 at saturation ([3]; Tau 0P): No change
fluorescence intensity change on addition of peptide ([3]; Tau0P, unphosphorylated): no major change was observed
I/I0 - 1 at saturation ([4]; Tau204-216 2P (i, i+6)): No change
detection of / interaction with peptide by fluorescence change ([4]; Tau204-2162P (i, i+6)): could not be detected; also recorded: did not interact
fluorescence intensity change with time ([5]; 20 μM Tau1P, 20 μM BODIPY-Zn(Dpa), 100 μM ATP, 30° C.): increase in fluorescence intensity with time was confirmed
kinase concentration dependence of fluorescence intensity ([5]; GSK-3β concentration varied): concentration-dependence of GSK-3β was observed
fluorescence in tissue [6]: is not observed
fluorescence dots in staining image after PP2A treatment [7]: disappeared
fluorescence intensity after PP2A treatment compared with before [7]: significantly decreased
EC50 ([8]; aggregate 1 μg/mL, 37° C., 30 min): 9.1 nM
affinity (EC50) for phosphorylated tau aggregate relative to amyloid β aggregate ([8]; higher than for the amyloid β aggregate): 70 times
affinity (EC50) for phosphorylated tau aggregate relative to tau aggregate ([8]; higher than for the tau aggregate): 9 times
